Results as given in article PMC3516570, “The GM2 Glycan Serves as a Functional Coreceptor for Serotype 1 Reovirus” (PLoS Pathogens, 2012).

B1: reovirus type 1 Lang (T1L) σ1, construct σ1_(long) (amino acids 261–470), GCN4 domain and His6-tag removed (domain or fragment)
chain: LESAKIDSVLPPLTVREASGVRTLSFGYDTSDFTIINSVLSLRSRLTLPTYRYPLELDTANNRVQVADRFGMRTGTWTGQLQYQHPQLSWRANVTLNLMKVDDWLVLSFSQMTTNSIMADGKFVINFVSGLSSGWQTGDTEPSSTIDPLSTTFAAVQFLNNGQRIDAFRIMGVSEWTDGELEIKNYGGTYTGHTQVYWAPWTIMYPCNVR
notes: Made as His6-GCN4(trimeric)-σ1(261–470) in pQE-80L; Crystals were soaked with GM2 or GM3 glycan; also called cleaved σ1_(long); σ1 attachment protein; not shown: His6, N-terminal, cleaved; GCN4 trimeric leucine zipper, N-terminal, cleaved

How the values were obtained:
[1] = target: T1, T1L σ1long (Mammalian orthoreovirus 1 Lang, UniProt P04506); assay: X-ray crystal structure ([…] Å); also STD NMR; assay type: binding; conditions: crystal soak with 20 mM glycan; same site as GM2 glycan; STD NMR pH 7.4, 283 K
T1 construct: gene S1; residues 261-470, three C-terminal beta-spirals plus head; E. coli; trimeric GCN4 zipper and His6-tag removed by trypsin (kept for glycan array); trimer

[2] = target: the molecule itself; assay: crystal structure; crystals of cleaved σ1_(long) grown in 0.1 M Na cacodylate (pH 6.0–6.6), 1.2–1.5 M (NH4)2SO4 at 4°C, soaked with 20 mM GM2 or GM3 oligosaccharide; space group P3_(2)21; 3.6 Å (GM2) and 3.5 Å (GM3)

Row | Molecule | X-ray crystal structure (3.5 Å); also STD NMR [1] | stoichiometry N [2]
1 | CC(=O)N[C@H]1[C@H]([C@H](O)[C@H](O)CO)O[C@@](O[C@H]2[C@@H](O)[C@@H](CO)O[C@@H](O[C@H]3[C@H](O)[C@@H](O)C(O)O[C@@H]3CO)[C@@H]2O)(C(=O)O)C[C@@H]1O (some centres unmarked) [GM3 glycan] | 4GU4 (T1L σ1-GM3 glycan complex) | 
2 | B1 |  | 3
